# Patent publication US7078389B2, “Chemically modified oligonucleotide for site-directed mutagenesis” (priority 1993, dated 2006)
# Entries after “also recorded” stand apart in the source; their conditions may differ.
# Tests used:
# [1] = tested on: duplex supF DNA; assay: UVA-induced covalent bond formation to duplex supF DNA; assay type: binding, E. coli; details: following UVA irradiation
# [2] = tested on: supF gene in lambda supF DNA; assay: Targeted mutagenesis of supF gene in lambda supF DNA (in vitro packaging, plaques on E. coli); details: for supF mutations per 1000 phage: lambda DNA 3 nM; for supF mutation frequency: plus UVA 1.8 J/cm^2
# Protocol: (§1) Targeted mutagenesis was achieved by incubating pso-AG10 with lambda supF DNA in vitro to form triplex at positions 167 to 176 of the supF gene and bring the tethered psoralen into proximity with the targeted base pair at position 167 as shown in Table 1. The numbers in the table represent the frequency of mutations seen in either the supF gene or the cI gene in the lambda supF genome following the indicated treatment. The lambda DNA at 3 nM was incubated with or without a 1000-fold molar excess of the indicated oligonucleotides (3 μM) as described in FIG. 2.
# (§2) UVA (365 nm) irradiation of selected samples was performed at a dose of 1.8 J/cm^2. A radiometer was used to measure lamp output (typical UVA irradiance of 5–7 mW/cm^2 at 320–400 nm). The DNA was packaged in vitro into phage particles, using the method of Hohn, Methods in Enzymology 68:299–309 (1979), and the phage particles were adsorbed to E. coli and grown as individual plaques to allow genetic analyses of the supF and cI genes.
# (§3) Photoactivation of the psoralen generated a DNA adduct, and in vitro packaging of the psoralen-AG10. The lambda supF DNA complex allowed growth of the phage in bacteria to fix the adduct into a mutation. The phage particles were grown as individual plaques on a bacterial lawn to detect targeted mutagenesis in the supF gene and to measure the extent of non-targeted mutagenesis by screening for the function of an unrelated gene, the lambda repressor (cI) gene. Mutations in these genes yield colorless plaques among blue ones and clear plaques among turbid ones, respectively.
# [3] = tested on: lambda repressor (cI) gene; assay: Non-targeted mutagenesis of cI gene in lambda supF DNA; design: species or system lambda phage; details: for cI mutations per 1000 phage: lambda DNA 3 nM, oligonucleotide 3 μM, UVA 1.8 J/cm^2
# Protocol: as §1, §2, §3
# [4] = tested on: supF gene of the lambda vector; assay: Sequence analysis of supF mutants from lambda vector; design: species or system E. coli; details: plus UVA
# Text: FIGS. 2A and 2B show a sequence analysis of targeted mutagenesis in the supF gene by the psoralen-linked triplex-forming oligonucleotide (pso-AG10). In FIG. 2A, mutations produced by pso-AG10 and UVA are indicated above each base pair, with the listed base representing the change from the sequence in the top strand. […] The asterisk indicates the targeted base pair at position 167. DNA sequence data was obtained by automated methods after polymerase chain reaction amplification of the supF genes from lambda phage plaques in accordance with the method of Connell et al., Biotechniques 5:342 (1987). FIG. 2B is a compilation of mutations induced in supF by 8-methoxypsoralen and UVA in mouse L-cells using the lambda supF vector of FIG. 1 or generated using a plasmid shuttle vector in monkey Vero cells in accordance with the method of Bredberg and Nachmansson, Carcinogenesis 8:1923 (1987), to compare the mutations produced in supF by free psoralen with those produced by the triplex forming oligonucleotide AG10.
# To obtain direct evidence for targeted mutagenesis, a series of independent mutants produced in the supF gene of the lambda vector by pso-AG10 and UVA were sequenced. […] The A:T base pair at 167 forms a triplet with the 5′ adenine to which the psoralen is tethered in AG10, and so it is the closest base pair to the psoralen. The overwhelming predominance of the T:A to A:T transversion at this site is consistent with the mutagenic action of psoralen, which tends to form adducts at pyrimidines, and especially at thymidines. It should be noted that these mutations are independent and none of the mutations represent siblings because each packaged lambda particle gives rise to a single, separate lambda plaque on the bacterial lawn.
# [5] = tested on: 250 bp supF PCR fragment; assay: Hinf I restriction enzyme protection assay, PCR amplified supF target; assay type: binding, E. coli; details: 100-fold molar excess of oligonucleotide
# Text: FIG. 4 is a schematic representation showing the basis of a restriction enzyme protection assay to detect site-specific triplex formation within the supF gene. The formation of triplex DNA by psoralen-AG10 at its targeted site (bp 167–176 of the supF gene) overlaps with the Hinf I restriction site at bp 164–168 (indicated in the diagram by the box around the appropriate base pairs). Digestion of the unprotected 250 bp supF PCR fragment with Hinf I is expected to yield three fragments of sizes 150, 65, and 35 bp. In contrast, with the Hinf I site at bp 164–168 blocked by triplex formation at bp 167–176, fragments of sizes 150 and 100 bp are predicted.
# The 250 bp supF target (70 nM) was incubated with a 100-fold molar excess of psoralen-AG10 as described for the binding assay. Irradiation of samples was performed at a dose of 1.8 J/cm^2. A radiometer was used to measure the lamp output (typical UVA irradiance of 5–7 mW/cm^2 at 320–400 nm). Following the binding and irradiation steps, samples were digested for 2 hours at 37° C. with Hinf I. Loading buffer was added and samples were heated 10 minutes at 55° C., and run for 1 hour on a 4.5% Nusieve gel in TAE buffer at 80 v (10 v/cm).
# Site-specific formation of triplex DNA. […] This is diagrammed in FIG. 4. […] Analysis by agarose gel electrophoresis of Hinf I digestions of the 250 bp supF gene PCR fragment under various conditions was done. The supF fragment was incubated with or without psoralen-AG10 at a 100-fold molar excess, treated by 1.8 J/cm^2 of UVA irradiation, and then subjected to Hinf I digestion. Digestion of the unprotected 250 bp supF PCR fragment with Hinf I yielded three fragments of sizes 150, 65, and 35 in contrast with the uncut fragment of 250 bp. […] In the absence of psoralen-AG10, UVA light had no effect on Hinf I digestion.
# [6] = oligonucleotide 3 μM (1000-fold molar excess), UVA 1.8 J/cm^2
# [7] = supF fragment 70 nM, UVA 1.8 J/cm^2
Substance,Covalent bond to labeled duplex supF DNA [1],"supF mutations per 1000 phage [2, 6]","supF mutations per 1000 phage ([2]; oligonucleotide 3 μM, no UVA)",supF mutagenesis without UVA ([2]; no UVA),Difference between supF and cI mutation frequency ([2]; plus UVA),Specificity of targeted mutagenesis considering target size of cI (765 bp) and supF (184 bp) ([2]; plus UVA) [fold],supF mutation frequency [2] [%],cI mutations per 1000 phage [3],cI mutation frequency ([3]; plus UVA 1.8 J/cm^2) [%],Share of sequenced supF mutations that are the T:A to A:T transversion at targeted base pair 167 ([4]; 25 mutants) [%],Position of supF mutations relative to targeted base pair 167 [4],Protection from Hinf I digestion ([5]; no UVA),"Protection from Hinf I digestion [5, 7]",Fold lower frequency of supF mutations than pso-AG10 ([2]; plus UVA) [fold],Mutagenesis relative to background (untreated lambda DNA) ([2]; plus UVA)
"4′-hydroxymethyl-4,5′,8-trimethylpsoralen-^5′AGGAAGGGGG^3′ (DNA NAGGAAGGGGG; 4'-hydroxymethyl-4,5',8-trimethylpsoralen conjugated at 5' end, further chemistry not given here) [pso-AG10]",formed a covalent bond to labeled duplex supF DNA following UVA irradiation,2.33 (263/112.872) per 1000 phage,<0.014 (0/69.000) per 1000 phage,No significant mutagenesis,approximately 100 fold,≤ 500,0.233,"0.024 (28/1,162,000) per 1000 phage",0.0024,56,All except one of the 25 mutations produced by pso-AG10 is at or near the targeted T:A base pair at position 167; also recorded: almost all were targeted by the triplex-forming oligonucleotide,not sufficient to prevent Hinf I digestion,protection of the Hinf I site at bp 164–168 but not the one at bp 129–133,,
"pso-^5′GGGGGAAGGA^3′ (DNA NGGGGGAAGGA; psoralen conjugated at 5' end, further chemistry not given here) [pso-GA10, reference compound]",did not,0.004 (2/504.198) per 1000 phage,,,5 fold,,0.0004,"0.019 (9/483,475) per 1000 phage",,,"Neither of the two mutations induced by the reverse oligomer, pso-GA10, were found to occur at base pair 167",,no protection from Hinf I cutting,582,barely above background
